Data reported in US20160000762A1, “IMPROVING COGNITIVE FUNCTION” (THE REGENTS OF THE UNIVERSITY OF CALIFORNIA, priority 2013, published 2016).

How the values were obtained:
CA1 pyramidal neurons = experiment: Whole cell recordings (mEPSC, AMPA/NMDA) in CA1 pyramidal neurons of injected mice; assay type: in vivo; details: 30 mg/kg i.p., 2 weeks
Protocol: Electrophysiology. Transverse [for Schaffer collateral (SC) input studies] or horizontal [for temporammonic (TA) input studies] hippocampal slices (400-μm thick) were prepared from adult mice. Slices were made using ice-cold dissection buffer (in mM: 212.7 sucrose, 2.6KCl, 1.23NaH2PO4, 10 dextrose, 3MgCl2 and 1CaCl2; 5% CO2/95% O2), and recordings were done in a submersion-type chamber perfused with artificial cerebrospinal fluid (ACSF, in mM: 124NaCl, 5KCl, 1.25NaH2PO4, 26NaHCO3, 10 dextrose, 1.5MgCl2, and 2.5CaCl2; 5% CO2/95% O2, 29.5-30.5° C., 2 ml/min). For field potential recordings, synaptic responses were evoked using 0.2 ms duration pulses delivered through a bipolar glass stimulating electrode at 0.0333 Hz. A train of TBS consisted of a burst of 4 pulses at 100 Hz repeated 10 times at 5 Hz. For 4× TBS, 4 trains of TBS were given at 10 sec inter-train-intervals. […] Recording was initiated 2-3 min after break-in, and each cell was recorded for 10-15 min to collect enough mEPSCs for analysis. […] Cells were held at −70 mV, and the recorded mEPSC data were digitized at 10 kHz with a data acquisition board (National Instruments, Austin, Tex.) and acquired through custom-made programs using the Igor Pro software (WaveMetrics, Lake Oswego, Oreg.). […] Only about 4% of the total recorded cells (at most 1 cell per experimental group) were excluded due to negative correlation between mEPSC rise and amplitude. One hundred consecutive mEPSCs that met the rise time criteria were analyzed from each cell. AMPAR- and NMDAR-mediated currents were measured at −70 and +40 mV, respectively. AMPAR mediated EPSC amplitudes were measured at the peak of the current at −70 mV. NMDAR mediated EPSC amplitudes were measured 100 ms after the stimulation artifact. […]
To verify that the increase in dendritic spine density and synaptic proteins reflects an increase in functional synapses, we measured miniature excitatory postsynaptic currents (mEPSCs) from CA1 neurons in hippocampal slices following in vivo administration of BTA-EG4 (30 mg/kg, i.p.) for 2 weeks.

[1] = Capule and Yang, 2012; Inbar et al., 2006; cited from earlier work
soluble Aβ 40 = experiment: Aβ ELISA, 3× Tg AD mice; assay type: in vivo; details: 30 mg/kg daily, 2 weeks
Protocol: Aβ ELISA. Mouse brains were homogenized in tissue homogenization buffer containing 250 mM sucrose, 20 mM Tris base, protease, and phosphatase inhibitors. To measure soluble Aβ, DEA extraction was performed. Crude 10% homogenate was mixed with an equal volume of 0.4% diethylamine (DEA), sonicated, and ultracentrifuged for 1 hr at 100,000×g. The supernatant was collected and neutralized with 10% 0.5 M Tris, pH 6.8. Sensitive and specific ELISAs to rodent Aβ1-40 was purchased from IBL Transatlantic (Toronto, Canada) and conducted per the manufacturer's protocol.

Substance: BTA-EG4
- AMPAR/NMDAR ratio (CA1 pyramidal neurons): did not observe a change
- average mEPSC amplitude (CA1 pyramidal neurons): no significant difference
- frequency of mEPSCs (CA1 pyramidal neurons): significantly increased
- blood-brain barrier penetration [1]: can penetrate the blood-brain barrier
- toxicity [1]: no toxicity
- soluble Aβ 40 levels (soluble Aβ 40; 2-3 months): decrease
- soluble Aβ 40 level (soluble Aβ 40; 6-10 months): without changes
- soluble Aβ 40 level (soluble Aβ 40; 13-16 months): none of the measured parameters were significantly altered
